Measurements: the NIST ThermoML archive (doi:10.1021/je700260f)

Settings: 323.14 K, Liquid, Vibrating tube method

FC(C(F)(F)F)C(F)(F)F [1,1,1,2,3,3,3-heptafluoropropane]
Settings	mass density [kg/m3]
18469 kPa	1413.4
18489 kPa	1413.6
18518 kPa	1413.8
18639 kPa	1414.5
18664 kPa	1414.6
18688 kPa	1414.7
18713 kPa	1414.8
18738 kPa	1414.8
18764 kPa	1415.1
18787 kPa	1415.1
18806 kPa	1415.3
18836 kPa	1415.4
19030 kPa	1416.6
19049 kPa	1416.5
19073 kPa	1416.7
19091 kPa	1416.8
19111 kPa	1416.8
19136 kPa	1416.9
19224 kPa	1417.4
19244 kPa	1417.5
19276 kPa	1417.6
19303 kPa	1417.9
19335 kPa	1418
19359 kPa	1418.1
19382 kPa	1418.2
19410 kPa	1418.4
19431 kPa	1418.5
19452 kPa	1418.4
19473 kPa	1418.7
19509 kPa	1418.8
19534 kPa	1419.1
19563 kPa	1419.2
19591 kPa	1419.1
19608 kPa	1419.2
19637 kPa	1419.5
19667 kPa	1419.6
19693 kPa	1419.8
19721 kPa	1419.9
19746 kPa	1419.9
19771 kPa	1420
19795 kPa	1420.5
19830 kPa	1420.4
19857 kPa	1420.6
19893 kPa	1420.7
19917 kPa	1420.9
19942 kPa	1421.1
19968 kPa	1421.2
19996 kPa	1421.3
20014 kPa	1421.4
20047 kPa	1421.4
20075 kPa	1421.5
20101 kPa	1421.8
20124 kPa	1421.9
20452 kPa	1423.5
20511 kPa	1423.8
20538 kPa	1423.8
20571 kPa	1424.1
20600 kPa	1424.3
20632 kPa	1424.4
20657 kPa	1424.6
20681 kPa	1424.6
20715 kPa	1424.8
20735 kPa	1424.9
20759 kPa	1425
20780 kPa	1425.1
20814 kPa	1425.2
20837 kPa	1425.4
20864 kPa	1425.5
20891 kPa	1425.6
20919 kPa	1425.8
20943 kPa	1425.8
20963 kPa	1426
20994 kPa	1426.2
21021 kPa	1426.3
21041 kPa	1426.4
21069 kPa	1426.5
21100 kPa	1426.5
21124 kPa	1426.7
21151 kPa	1426.8
21174 kPa	1427
21195 kPa	1427.2
21219 kPa	1427.1
21243 kPa	1427.2
21271 kPa	1427.4
21296 kPa	1427.5
21318 kPa	1427.7
21353 kPa	1427.8
21376 kPa	1428.1
21404 kPa	1428.1
21424 kPa	1428.1
21456 kPa	1428.3
21478 kPa	1428.4
21511 kPa	1428.6
21546 kPa	1428.8
21572 kPa	1428.9
21597 kPa	1429
21630 kPa	1429.1
21660 kPa	1429.3
21684 kPa	1429.4
21712 kPa	1429.4
21734 kPa	1429.6
22001 kPa	1430.9
22031 kPa	1431
22058 kPa	1431.1
22088 kPa	1431.3
22114 kPa	1431.5
22137 kPa	1431.4
22174 kPa	1431.7
22209 kPa	1431.8
22233 kPa	1432
22272 kPa	1432.1
22308 kPa	1432.2
22334 kPa	1432.5
22366 kPa	1432.6
22390 kPa	1432.7
22418 kPa	1432.7
22439 kPa	1432.9
22462 kPa	1433.1
22489 kPa	1433.2
22513 kPa	1433.3
22533 kPa	1433.3
22571 kPa	1433.6
22602 kPa	1433.6
22627 kPa	1433.8
22657 kPa	1434
22685 kPa	1434.1
22721 kPa	1434.2
22744 kPa	1434.3
22777 kPa	1434.5
22801 kPa	1434.6
22825 kPa	1434.6
22862 kPa	1434.8
22889 kPa	1435
22927 kPa	1435.2
22962 kPa	1435.2
23026 kPa	1435.6
23049 kPa	1435.7
23075 kPa	1435.7
23101 kPa	1436
23130 kPa	1436.1
23163 kPa	1436.3
23185 kPa	1436.3
23221 kPa	1436.4
23254 kPa	1436.5
23276 kPa	1436.7
23305 kPa	1436.8
23328 kPa	1437
23354 kPa	1437.1
23380 kPa	1437.2
23402 kPa	1437.2
23428 kPa	1437.5
23454 kPa	1437.5
23484 kPa	1437.7
23510 kPa	1437.7
23538 kPa	1437.9
23560 kPa	1438
23587 kPa	1438.1
23609 kPa	1438.2
23776 kPa	1439
23810 kPa	1439
23832 kPa	1439.2
23865 kPa	1439.2
23891 kPa	1439.5
23918 kPa	1439.6
23949 kPa	1439.6
23975 kPa	1439.9
23998 kPa	1439.9
24025 kPa	1440
24056 kPa	1440
24079 kPa	1440.3
24109 kPa	1440.4
24134 kPa	1440.5
24156 kPa	1440.7
24187 kPa	1440.7
24223 kPa	1440.9
24254 kPa	1441.1
24277 kPa	1441.2
24304 kPa	1441.1
24342 kPa	1441.4
24400 kPa	1441.5
24420 kPa	1441.7
24564 kPa	1442.3
24596 kPa	1442.6
24658 kPa	1442.8
24699 kPa	1443
24727 kPa	1443.1
24768 kPa	1443.2
24794 kPa	1443.4
24828 kPa	1443.6
24859 kPa	1443.8
24889 kPa	1443.8
24914 kPa	1444
24955 kPa	1444.1
24984 kPa	1444.1
25017 kPa	1444.3
25047 kPa	1444.4
25081 kPa	1444.7
25116 kPa	1444.8
25141 kPa	1445
25410 kPa	1446.1
25440 kPa	1446.3
25947 kPa	1448.3
25974 kPa	1448.4
26063 kPa	1448.8
26227 kPa	1449.5
26309 kPa	1449.7
